{"source": "patent US20110262442A1", "about": "“COMPOSITIONS FOR TREATING CNS DISORDERS” (Adenios, Inc., priority 2009, published 2011)", "key": {"[1]": {"system": "Z310 cells", "experiment": "Jurkat cell migration across Z310-seeded Transwell (choroid plexus)", "assay_type": "cell-based, murine", "conditions": "Z310 cells on Transwell, migrated cells counted after 24 hours, n=1", "experimental": "The choroid plexus (“CP”) controls lymphocyte migration into the CNS. The CP expresses the A1 and A2A adenosine receptors. EAE is prevented in mice when A2A adenosine receptor activity is blocked. EAE is enhanced when the A1 adenosine receptor is missing. It was hypothesized that A2A adenosine receptor activation promotes lymphocyte migration across the CP. Z310 cells are a murine choroid plexus cell line. To test the hypothesis, Transwell membranes were seeded with Z310 cells and allowed to grow to confluencey. 2×10^6 Jurkat cells were added to the upper chamber with or with out NECA (n=1, general AR agonist), CCPA (n=1, AAR agonist), CGS 21860 (n=1, A2AAR agonist), or DMSO vehicle (n=1). After 24 hours, migrated cells in the lower chamber were counted. Values are relative to the number of cells that migrate through non-Z310 seeded transwells and the results are shown in FIG. 12."}, "[2]": {"system": "hCMEC/D3 cells", "experiment": "Jurkat cell migration across hCMEC/D3-seeded Transwell (in vitro BBB)", "assay_type": "cell-based, human", "conditions": "hCMEC/D3 on Transwell, migrated cells counted after 24 hours", "description": "The blood brain barrier (“BBB”) is comprised of endothelial cells. During late stages of EAE, lymphocytes are known to cross the BBB. In order to determine if adenosine receptor stimulation of brain endothelial cells could promote lymphocyte migration through the BBB, an in vitro BBB was established. The human brain endothelial cell line hCMEC/D3 (Weksler et al., “Blood-brain Barrier-specific Properties of a Human Adult Brain Endothelial Cell Line,” […] (2005); Poller et al., “The Human Brain Endothelial Cell Line hCMEC/D3 as a Human Blood-brain Barrier Model for Drug Transport Studies,” J. Neurochem. 107(5):1358-1368 (2008), which are hereby incorporated by reference in their entirety) was obtained, which has been previously described as having BBB properties.\nhCMEC/D3 cells were seeded onto Transwell and allowed to grow to confluencey. 2×10^6 Jurkat cells were added to the upper chamber with or without NECA (general adenosine receptor [AR] agonist), CCPA (A1 AR agonist), CGS 21860 (A2A AR agonist), or DMSO vehicle. After 24 hours, migrated cells in the lower chamber were counted. Values are relative to the number of cells that migrate through non-HCMECD3 seeded transwells."}}}
{"smiles": "CCNC(=O)[C@H]1O[C@@H](n2cnc3c(N)ncnc32)[C@H](O)[C@@H]1O", "note": "[NECA, 5′-N-ethylcarboxamidoadenosine]", "values": [{"measurement": "lymphocyte (Jurkat) migration across the CP", "setting": "[1]", "value": "induced migration"}, {"measurement": "lymphocyte (Jurkat) migration across the in vitro BBB", "setting": "[2]", "value": "induced some migration"}]}
